The values that follow come from patent US8865894B2, “Oxazolidin-2-one compounds and uses thereof” (Novartis AG, priority 2012, dated 2014).

Molecules are shown by their SMILES.

In one assay the target is PI3Kgamma (Homo sapiens, UniProt P48736). Briefly: Biochemical PI3Kgamma (TR-FRET Adapta Universal Kinase Assay). Conditions: mean of n measurements, read-out: PIK3g/ IC50. As to the method: (§1) Test compounds were dissolved in DMSO (10 mM) and transferred into 1.4 mL flat bottom or V-shaped Matrix tubes carrying a unique 2D matrix chip by individual Novartis compound hubs. The numbers of these chips were distinctively linked to Novartis Pharma Numbers. The stock solutions were stored at −20° C. if not used immediately. For the test procedure the vials were defrosted and identified by a scanner whereby a working sheet was generated that guided the subsequent working steps.
(§2) Compounds were either manually diluted in DMSO for individual experiments (96 wells enabling 10 cpds at 8 (single points) concentrations) as described in or prepared as described below if tested for profiling in 384-wells. This format enabled the assay of maximally 40 individual test compounds at 8 concentrations (single points) including 4 reference compounds. The dilution protocol included the production of “pre-dilution plates”, “master plates” and “assay plates”.
(§3) 96 polypropylene well plates were used as pre-dilution plates. A total of 4 pre-dilution plates were prepared including 10 test compounds each on the plate positions A1-A10, one standard compound at A11 and one DMSO control at A12. Programs have been written to run these pipetting steps on the HamiltonSTAR robots.
100 μL of individual compound dilutions including standard compound and controls of the 4 “pre-dilution plates” were transferred into a 384 “master plate” including the following concentrations 1,820, 564, 182, 54.6, 18.2, 5.46, 1.82 and 0.546 μM, respectively in 90% DMSO.
(§4) Identical “assay plates” were then prepared by pipetting 50 nL each of compound dilutions of the “master plates” into 384-well “assay plates”. The compounds were mixed with 4.5 μL of assays components plus 4.5 μL enzyme corresponding to a 1:181 dilution enabling the final concentration of 10, 3.0, 1.0, 0.3, 0.1, 0.03, 0.01 and 0.003 μM, respectively. The preparation of the “master plates” was handled by the Matrix PlateMate Plus robot and replication of “assay plates” by the HummingBird robot.
The TR-FRET Adapta™ Universal Kinase Assay Kit was purchased from Invitrogen Corporation (Carlsbad/CA, USA) (Cat. No. PV5099). The kit contains the following reagents: Adapta Eu-anti-ADP Antibody (Europium labeled anti-ADP antibody in HEPES buffered saline, Cat. No. PV5097), Alexa Fluor® 647-labeled ADP tracer (Alexa Fluor® 647-labeled ADP tracer in HEPES buffered saline, Cat. No. PV5098), proprietary TR-FRET dilution buffer pH 7.5 (Cat. No. PV3574).
PIK3CD substrate Phosphatidylinositol was obtained from Invitrogen (vesicules consisting of 2 mM PI in 50 mM HEPES pH7.5; Cat. No. PV5371). PIK3CG substrate Phosphatidylinositol-4,5-bisphosphate (PIP(4,5)2 was obtained from Invitrogen (PIP2:PS large unilamellar vesicules consisting of 1 mM PIP2: 19 mM PS in 50 mM HEPES pH7.5, 3 mM MgCl2, 1 mM EGTA; Cat. No. PV5100).
Time-Resolved Fluorescence Resonance Energy Transfer (TR-FRET) is a technology based on energy transfer between two adjacent dyes, from an excited electron in one dye (the donor) to an electron of an adjacent dye (the acceptor) through resonance, then released as a photon. This energy transfer is detected by an increase in the fluorescence emission of the acceptor, and a decrease in the fluorescence emission of the donor. TR-FRET assays for protein kinases use a long-lifetime lanthanide Terbium or Europium chelates as the donor species which overcome interference from compound autofluorescence or light scatter from precipitated compounds, by introducing a delay after excitation by a flashlamp excitation source. Results are often expressed as a ratio of the intensities of the acceptor and donor fluorophores. The ratiometric nature of such a value corrects for differences in assay volumes between wells, as well as corrects for quenching effects due to colored compounds. The Adapta™ assay can be divided into two phases: a kinase reaction phase and an ADP detection phase. […]
A general note: Time-resolved FRET reads energy transfer from a long-lived donor to a nearby acceptor.

A further assay has as its target T1, human PI3Kβ (Homo sapiens, UniProt P42338).
T1 construct: made in house
In words: Biochemical PI3Kbeta (KinaseGlo luminescent kinase assay). The note with it: 1 μM ATP, mean of n measurements, read-out: PI3Kb/ IC50. As to the method: as §1, §2, §3, §4
Catalytically active human PI3Kα, PI3Kβ, PI3Kδ, and mTOR were cloned, expressed and purified as described (Maira S M, Stauffer F, Brueggen J, Furet P, Schnell C, Fritsch C, Brachmann S, Chène P, de Pover A, Schoemaker K, Fabbro D, Gabriel D, Simonen M, Murphy L, Finan P, Sellers W, García-Echeverría C (2008), Mol Cancer Ther. 7:1851-63 and Maira S M, Pecchi S, Brueggen J, Huh K, Schnell C, Fritsch C, Nagel T, Wiesmann M, Brachmann S, Dorsch M, Chène P, Schoemaker K, De Pover A, Menezes D, Fabbro D, Sellers W, García-Echeverría C, Voliva C F (2011), Mol. Cancer Ther. accepted).
The luminescence-based ATP detection reagent KinaseGlo was obtained from Promega, (Cat. No. V6714, Lot No. 236161) through Catalys, Wallisellen, Switzerland. (L-alpha-phosphatidylinositol (PI), Liver, Bovine) were obtained from Avanti Polar Lipid (Cat. No. 840042C, Lot#LPI-274), Phosphatidylinositol-4,5-bisphosphate (PIP(4,5)2 (Avanti, Cat. No. 840046×) or L-α-phosphatidylinositol (PI) was obtained from Avanti Polar Lipid (Cat. No. 840042C, Lot#LPI-274). L-α-Phosphatidylserine (PS) was from Avanti Polar Lipid (Cat. No. 840032C), n-OctylGlucoside Avanti Polar Lipid (Cat. No. 10634425001). Luminescence is a well established readout to determine ATP concentrations and can thus be used to follow the activity of many kinases regardless of their substrate. The Kinase Glo Luminescent Kinase Assay (Promega, Madison/Wis., USA) is a homogeneous HTS method of measuring kinase activity by quantifying the amount of ATP remaining in solution following a kinase reaction.
50 nL of compound dilutions were dispensed onto black 384-well low volume Non Binding Styrene (NBS) plates (Costar Cat. No. NBS#3676) as described in section 8.2. L-α-phosphatidylinositol (PI), provided as 10 mg/ml solution in methanol, was transferred into a glass tube and dried under nitrogen beam. It was then resuspended in 3% OctylGlucoside by vortexing and stored at 4° C. 5 μL of a mix of PI/OG with the PI3Ka and Pi3Kb subtypes were added. Kinase reactions were started by addition of 5 μl of ATP-mix containing in a final volume 10 μL 10 mM TRIS-HCl pH 7.5, 3 mM MgCl2, 50 mM NaCl, 0.05% CHAPS, 1 mM DTT and 1 μM ATP, and occurred at room temperature.

T1 sequence (P42338 2-1070 limits assumed): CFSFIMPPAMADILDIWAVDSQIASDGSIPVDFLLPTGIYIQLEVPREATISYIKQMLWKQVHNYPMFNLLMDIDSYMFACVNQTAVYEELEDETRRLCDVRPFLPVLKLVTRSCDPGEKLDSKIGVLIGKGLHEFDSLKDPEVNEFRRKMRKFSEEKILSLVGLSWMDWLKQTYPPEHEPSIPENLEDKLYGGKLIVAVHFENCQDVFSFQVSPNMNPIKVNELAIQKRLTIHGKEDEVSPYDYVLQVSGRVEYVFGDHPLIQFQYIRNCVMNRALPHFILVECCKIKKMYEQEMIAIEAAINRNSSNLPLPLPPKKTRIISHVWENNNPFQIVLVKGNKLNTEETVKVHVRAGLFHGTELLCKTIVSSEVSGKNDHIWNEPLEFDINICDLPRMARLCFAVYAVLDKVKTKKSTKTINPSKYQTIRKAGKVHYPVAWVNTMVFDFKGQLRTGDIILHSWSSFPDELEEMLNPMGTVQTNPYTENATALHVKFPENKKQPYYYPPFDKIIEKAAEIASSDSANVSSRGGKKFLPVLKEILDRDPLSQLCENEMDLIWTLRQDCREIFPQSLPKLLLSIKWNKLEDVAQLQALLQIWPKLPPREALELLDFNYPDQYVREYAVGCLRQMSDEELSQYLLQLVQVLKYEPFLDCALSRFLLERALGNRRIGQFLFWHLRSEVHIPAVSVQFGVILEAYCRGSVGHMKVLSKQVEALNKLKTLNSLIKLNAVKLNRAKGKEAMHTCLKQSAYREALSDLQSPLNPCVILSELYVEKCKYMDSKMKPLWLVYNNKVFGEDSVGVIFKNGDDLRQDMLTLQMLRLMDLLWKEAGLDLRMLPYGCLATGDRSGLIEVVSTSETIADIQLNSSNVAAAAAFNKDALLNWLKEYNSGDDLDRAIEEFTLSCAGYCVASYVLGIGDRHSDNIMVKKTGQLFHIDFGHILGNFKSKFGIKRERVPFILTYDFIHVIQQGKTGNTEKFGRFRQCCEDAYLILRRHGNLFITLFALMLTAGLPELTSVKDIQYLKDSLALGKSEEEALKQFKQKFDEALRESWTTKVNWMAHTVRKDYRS
Sequence of PI3Kgamma (P48736 whole entry, species assumed): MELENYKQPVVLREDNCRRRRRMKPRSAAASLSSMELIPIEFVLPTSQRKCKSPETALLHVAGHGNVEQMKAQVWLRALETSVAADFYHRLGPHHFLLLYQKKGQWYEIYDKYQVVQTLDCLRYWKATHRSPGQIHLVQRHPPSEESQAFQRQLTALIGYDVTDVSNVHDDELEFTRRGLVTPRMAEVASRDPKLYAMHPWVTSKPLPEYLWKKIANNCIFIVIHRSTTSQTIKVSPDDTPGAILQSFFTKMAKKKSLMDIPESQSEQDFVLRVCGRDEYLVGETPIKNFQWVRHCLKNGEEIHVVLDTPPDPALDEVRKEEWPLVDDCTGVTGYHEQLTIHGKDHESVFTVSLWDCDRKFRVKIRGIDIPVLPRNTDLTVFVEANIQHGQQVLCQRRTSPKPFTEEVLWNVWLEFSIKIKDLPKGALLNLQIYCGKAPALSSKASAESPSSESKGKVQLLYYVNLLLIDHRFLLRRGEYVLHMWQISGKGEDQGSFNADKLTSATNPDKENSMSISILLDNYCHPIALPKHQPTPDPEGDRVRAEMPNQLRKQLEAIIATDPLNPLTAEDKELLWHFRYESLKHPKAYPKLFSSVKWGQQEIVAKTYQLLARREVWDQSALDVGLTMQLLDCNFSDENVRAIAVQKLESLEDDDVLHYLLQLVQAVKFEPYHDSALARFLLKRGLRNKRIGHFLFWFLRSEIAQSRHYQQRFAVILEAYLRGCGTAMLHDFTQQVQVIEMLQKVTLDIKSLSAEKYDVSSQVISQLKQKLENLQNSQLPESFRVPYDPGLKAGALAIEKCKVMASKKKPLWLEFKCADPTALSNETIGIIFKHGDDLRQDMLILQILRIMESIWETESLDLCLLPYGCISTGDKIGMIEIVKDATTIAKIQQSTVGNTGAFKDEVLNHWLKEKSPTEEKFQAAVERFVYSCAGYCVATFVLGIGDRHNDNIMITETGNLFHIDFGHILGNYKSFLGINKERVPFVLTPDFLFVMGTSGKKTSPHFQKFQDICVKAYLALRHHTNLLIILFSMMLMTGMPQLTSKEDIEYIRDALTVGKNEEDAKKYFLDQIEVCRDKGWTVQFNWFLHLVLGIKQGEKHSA

For `C[C@H]1C(CC(C)(C)O)OC(=O)N1c1cc(-c2cnc(N)nc2C(F)(F)F)nc(N2CCOCC2)n1` (mixture of isomers) [Example 26, (4S,5R)- and (4S,5S)-3-(2′-amino-2-morpholino-4′-(trifluoromethyl)-[4,5′-bipyrimidin]-6-yl)-5-(2-hydroxy-2-methylpropyl)-4-methyloxazolidin-2-one], the IC50 on PI3Kgamma came out at 290 nM; on human PI3Kβ, 124 nM.

As to `CC1(CO)COC(=O)N1c1cc(-c2cnc(N)nc2C(F)(F)F)nc(N2CCOCC2)n1` (racemic) [Example 3, 3-(2′-amino-2-morpholino-4′-(trifluoromethyl)-4,5′-bipyrimidin-6-yl)-4-(hydroxymethyl)-4-methyloxazolidin-2-one], the IC50 was 516 nM at PI3Kgamma and 18 nM at human PI3Kβ.

On to `Nc1ncc(-c2cc(N3C(=O)O[C@@H]4[C@@H](O)CC[C@@H]43)nc(N3CCOCC3)n2)c(C(F)(F)F)n1` (racemic) [Example 22, (3aR*,6R*,6aR*)-3-(2′-Amino-2-morpholino-4′-(trifluoromethyl)-[4,5′-bipyrimidin]-6-yl)-6-hydroxyhexahydro-2H-cyclopenta[d]oxazol-2-one], for which the IC50 on PI3Kgamma was 145 nM; on human PI3Kβ, 48 nM.

For the compound `Nc1ncc(-c2cc(N3C(=O)OC4C(O)CCC43)nc(N3CCOCC3)n2)c(C(F)(F)F)n1` (single isomer, unassigned) [Example 22A], the IC50 on PI3Kgamma stood at 110 nM; on human PI3Kβ, 86 nM.

With `Nc1ncc(-c2cc(N3C(=O)OC4C(O)CCC43)nc(N3CCOCC3)n2)c(C(F)(F)F)n1` (single isomer, unassigned) [Example 22B], the IC50 at PI3Kgamma was 410 nM; on human PI3Kβ, 58 nM.

Consider `C[C@@H](O)C[C@H]1OC(=O)N(c2cc(-c3cnc(N)nc3C(F)(F)F)nc(N3CCOCC3)n2)[C@H]1C` (single isomer, unassigned) [Example 24], for which the results for the IC50 on PI3Kgamma and at human PI3Kβ were 540 nM and 16 nM, respectively.

On to `C[C@H](O)CC1OC(=O)N(c2cc(-c3cnc(N)nc3C(F)(F)F)nc(N3CCOCC3)n2)[C@H]1C` (single isomer, unassigned) [Example 25], for which the IC50 at PI3Kgamma was determined as 205 nM; on human PI3Kβ it was 11 nM.

For `C[C@H]1COC(=O)N1c1cc(-c2cnc(N)nc2C(F)(F)F)nc(N2CCOCC2)n1` [Example 1, (S)-3-(2′-Amino-2-morpholin-4-yl-4′-trifluoromethyl-[4,5′]bipyrimidinyl-6-yl)-4-methyl-oxazolidin-2-one], the IC50 on PI3Kgamma was determined as 276 nM; at human PI3Kβ, 6 nM.

Consider `CC1(C)OC(=O)N(c2cc(-c3cnc(N)nc3C(F)(F)F)nc(N3CCOCC3)n2)[C@H]1CO` [Example 2, (S)-3-(2′-Amino-2-morpholin-4-yl-4′-trifluoromethyl-[4,5′]bipyrimidinyl-6-yl)-4-hydroxymethyl-5,5-dimethyl-oxazolidin-2-one], for which the values for the IC50 at PI3Kgamma and on human PI3Kβ were 348 nM and 20 nM, respectively.

Regarding `Nc1ncc(-c2cc(N3C(=O)O[C@H]4CCCC[C@@H]43)nc(N3CCOCC3)n2)c(C(F)(F)F)n1` [Example 4, (3aS,7aS)-3-(2′-Amino-2-morpholin-4-yl-4′-trifluoromethyl-[4,5′]bipyrimidinyl-6-yl)-hexahydro-benzooxazol-2-one], the values for the IC50 on PI3Kgamma and on human PI3Kβ were 238 nM and 7 nM, respectively.

For the compound `COC[C@H]1COC(=O)N1c1cc(-c2cnc(N)nc2C(F)(F)F)nc(N2CCOCC2)n1` [Example 5, (S)-3-(2′-Amino-2-morpholin-4-yl-4′-trifluoromethyl-[4,5′]bipyrimidinyl-6-yl)-4-methoxymethyl-oxazolidin-2-one], the IC50 was found to be 329 nM on PI3Kgamma and 11 nM on human PI3Kβ.

For `C[C@@H]1OC(=O)N(c2cc(-c3cnc(N)nc3C(F)(F)F)nc(N3CCOCC3)n2)[C@H]1CO` [Example 6], the IC50 on PI3Kgamma came to 258 nM; at human PI3Kβ, 7 nM.

On to `[2H]C1([2H])OC([2H])([2H])C([2H])([2H])N(c2nc(-c3cnc(N)nc3C(F)(F)F)cc(N3C(=O)O[C@H](C)[C@@H]3CO)n2)C1([2H])[2H]` [Example 8], for which the IC50 at PI3Kgamma stood at 237 nM; at human PI3Kβ it was 4 nM.

Consider `Nc1ncc(-c2cc(N3C(=O)OC[C@@H]3CCO)nc(N3CCOCC3)n2)c(C(F)(F)F)n1` [Example 9, (S)-3-(2′-Amino-2-morpholin-4-yl-4′-trifluoromethyl-[4,5′]bipyrimidinyl-6-yl)-4-(2-hydroxy-ethyl)-oxazolidin-2-one], for which the IC50 on PI3Kgamma was 1130 nM; at human PI3Kβ, 41 nM.

On to `C[C@H]1OC(=O)N(c2cc(-c3cnc(N)nc3C(F)(F)F)nc(N3CCOC[C@@H]3C)n2)[C@H]1CO` [Example 10, (4S,5R)-3-[2′-Amino-2-((S)-3-methyl-morpholin-4-yl)-4′-trifluoromethyl-[4,5′]bipyrimidinyl-6-yl]-4-hydroxymethyl-5-methyl-oxazolidin-2-one], for which the results for the IC50 on PI3Kgamma and on human PI3Kβ were 158 nM and 38 nM, respectively.

Take `Nc1ncc(-c2cc(N3CCOC3=O)nc(N3CCOCC3)n2)c(C(F)(F)F)n1` [Example 11, 3-(2′-Amino-2-morpholin-4-yl-4′-trifluoromethyl-[4,5′]bipyrimidinyl-6-yl)-oxazolidin-2-one, reference compound]: the IC50 on PI3Kgamma is 998 nM; at human PI3Kβ, 12 nM.

In the case of `C[C@H]1OC(=O)N(c2cc(-c3cnc(N)nc3C(F)(F)F)nc(N3CCOCC3)n2)[C@H]1COC=O` [Example 12, Formic acid (4S,5R)-3-(2′-amino-2-morpholin-4-yl-4′-trifluoromethyl-[4,5′]bipyrimidinyl-6-yl)-5-methyl-2-oxo-oxazolidin-4-ylmethyl ester], the IC50 on PI3Kgamma amounted to 1660 nM; at human PI3Kβ it was 49 nM.
